Data published in patent EP4741392A1, “1H-PYRAZOLO[4,3-C]PYRIDINE COMPOUND, AND COMPOSITION THEREOF AND USE THEREOF” (Shenzhen TargetRx Co., Ltd., priority 2023, dated 2025).

Key:
Format in all cases: biochemical
BTK C481S = biological target: T1, BTK C481S (Homo sapiens, UniProt Q06187, C481S); assay: Kinase activity inhibition assay (HTRF TK Kit)
T1 construct: purchased Carna 08-547
How it was run: (§1)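 Percent inhibition, derived from time-resolved FRET ratios (665/620 nm) relative to no-enzyme and DMSO wells, was fitted against log concentration to give IC50. Reactions contained kinase, substrate and ATP at room temperature, followed by 1 h detection.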

BTK kinase = biological target: T2, BTK kinase (Homo sapiens, UniProt Q06187); assay: Kinase activity inhibition assay (HTRF TK Kit)
T2 construct: purchased Invitrogen PV3587
T2 sequence (Q06187 whole entry): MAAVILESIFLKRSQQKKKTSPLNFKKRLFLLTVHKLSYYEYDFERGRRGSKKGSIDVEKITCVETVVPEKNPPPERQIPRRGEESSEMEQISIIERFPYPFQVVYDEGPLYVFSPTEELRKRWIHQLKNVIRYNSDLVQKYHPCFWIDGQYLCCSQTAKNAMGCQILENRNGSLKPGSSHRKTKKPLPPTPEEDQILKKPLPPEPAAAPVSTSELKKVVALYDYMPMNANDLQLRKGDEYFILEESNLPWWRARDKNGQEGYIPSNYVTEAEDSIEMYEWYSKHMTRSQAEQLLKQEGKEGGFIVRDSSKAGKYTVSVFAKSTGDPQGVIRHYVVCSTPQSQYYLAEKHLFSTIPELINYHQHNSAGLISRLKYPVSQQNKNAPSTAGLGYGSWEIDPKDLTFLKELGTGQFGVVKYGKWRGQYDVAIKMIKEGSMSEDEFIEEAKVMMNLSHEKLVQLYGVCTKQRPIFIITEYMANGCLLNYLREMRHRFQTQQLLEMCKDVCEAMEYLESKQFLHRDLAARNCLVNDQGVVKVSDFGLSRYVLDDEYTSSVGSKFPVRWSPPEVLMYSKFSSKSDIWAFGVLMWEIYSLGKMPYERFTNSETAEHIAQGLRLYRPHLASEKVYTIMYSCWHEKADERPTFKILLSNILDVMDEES
How it was run: as §1

BTK T474I = biological target: T3, BTK T474I (Homo sapiens, UniProt Q06187, T474I); assay: Kinase activity inhibition assay (HTRF TK Kit)
T3 construct: purchased SignalChem B10-12HH
T3 sequence (Q06187 whole entry T474I): as the sequence (Q06187 whole entry) above, with T474I counted along it
How it was run: as §1

EGFR = biological target: T4, EGFR (Homo sapiens, UniProt P00533); assay: Kinase activity inhibition assay (HTRF TK Kit), selectivity
T4 construct: purchased Carna 08-115
How it was run: as §1

ITK = biological target: T5, ITK (Homo sapiens, UniProt Q08881); assay: as above
T5 construct: purchased Carna 08-181
T5 sequence (Q08881 1-620): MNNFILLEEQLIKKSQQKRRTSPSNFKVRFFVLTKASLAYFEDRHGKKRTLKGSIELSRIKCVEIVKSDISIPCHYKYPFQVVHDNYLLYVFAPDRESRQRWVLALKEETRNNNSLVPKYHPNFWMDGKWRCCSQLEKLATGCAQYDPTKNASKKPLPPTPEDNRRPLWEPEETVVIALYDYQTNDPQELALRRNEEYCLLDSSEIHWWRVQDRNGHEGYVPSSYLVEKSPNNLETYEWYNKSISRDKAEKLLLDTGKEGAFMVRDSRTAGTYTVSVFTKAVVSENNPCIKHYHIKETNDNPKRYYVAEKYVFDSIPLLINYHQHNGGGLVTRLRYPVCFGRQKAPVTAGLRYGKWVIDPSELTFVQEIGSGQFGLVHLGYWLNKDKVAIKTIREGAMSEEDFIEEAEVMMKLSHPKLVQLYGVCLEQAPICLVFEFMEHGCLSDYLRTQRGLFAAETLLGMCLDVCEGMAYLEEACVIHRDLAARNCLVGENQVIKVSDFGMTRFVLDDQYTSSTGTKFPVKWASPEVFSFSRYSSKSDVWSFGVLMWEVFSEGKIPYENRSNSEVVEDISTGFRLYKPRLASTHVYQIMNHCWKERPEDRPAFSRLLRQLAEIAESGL
How it was run: as §1

TEC = biological target: T6, TEC (Homo sapiens, UniProt P42680); assay: as above
T6 construct: purchased Carna 08-182
T6 sequence (P42680 1-631): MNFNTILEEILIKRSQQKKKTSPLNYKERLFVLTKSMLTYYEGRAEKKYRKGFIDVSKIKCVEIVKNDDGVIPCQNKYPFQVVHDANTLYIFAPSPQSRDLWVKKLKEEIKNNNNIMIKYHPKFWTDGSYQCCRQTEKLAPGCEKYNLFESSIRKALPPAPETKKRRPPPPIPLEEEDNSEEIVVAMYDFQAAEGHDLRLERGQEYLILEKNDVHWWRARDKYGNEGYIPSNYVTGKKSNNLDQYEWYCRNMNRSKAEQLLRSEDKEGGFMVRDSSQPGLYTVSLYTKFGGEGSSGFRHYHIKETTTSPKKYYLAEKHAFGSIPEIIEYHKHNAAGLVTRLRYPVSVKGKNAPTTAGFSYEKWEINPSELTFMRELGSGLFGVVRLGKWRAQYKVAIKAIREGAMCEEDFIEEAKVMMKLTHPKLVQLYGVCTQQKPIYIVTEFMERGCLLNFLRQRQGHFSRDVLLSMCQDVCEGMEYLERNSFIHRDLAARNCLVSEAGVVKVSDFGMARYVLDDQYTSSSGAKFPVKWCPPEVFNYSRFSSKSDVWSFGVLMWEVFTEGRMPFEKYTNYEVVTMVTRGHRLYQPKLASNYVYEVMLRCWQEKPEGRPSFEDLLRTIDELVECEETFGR
How it was run: as §1

T1 sequence (Q06187 whole entry C481S): as the sequence (Q06187 whole entry) above, with C481S counted along it

Molecule	IC50 (BTK C481S) [nM]	IC50 (BTK kinase) [nM]	IC50 (BTK T474I) [nM]	IC50 (EGFR) [nM]	IC50 (ITK) [nM]	IC50 (TEC) [nM]
COc1ccc(F)cc1C(=O)NCc1ccc(-c2ncc(-c3cc[nH]n3)c3[nH]nc(N)c23)cc1 [Example 31, N-(4-(3-amino-7-(1H-pyrazol-3-yl)-1H-pyrazolo[4,3-c]pyridin-4-yl)benzyl)-5-fluoro-2-methoxybenzamide]	1 to 5	1 to 5	50 to 500	50 to 500	> 500	50 to 500
COc1ccc(F)cc1C(=O)NCc1ccc(-c2nc(C(C)C(F)(F)F)c(-c3ccn(C)n3)c3[nH]nc(N)c23)cc1 (stereo not drawn) [Example 6, N-(4-(3-amino-7-(1-methyl-1H-pyrazol-3-yl)-6-(1,1,1-trifluoropropan-2-yl)-1H-pyrazolo[4,3-c]pyridin-4-yl)benzyl)-5-fluoro-2-methoxybenzamide]	1 to 5	1 to 5	5 to 50	50 to 500	> 500	5 to 50
COc1ccc(F)cc1C(=O)NCc1ccc(-c2ncc(-c3ccc(C(=O)N4C[C@@H](C)O[C@H](C)C4)cn3)c3[nH]nc(N)c23)cc1 [Example 54, N-(4-(3-amino-7-(5-((2R,6R)-2,6-dimethylmoroholine-4-carbonyl)pyridin-2-yl)-1H-pyrazolo[4,3-c]pyridin-4-yl)benzyl)-5-fluoro-2-methoxybenzamide]	1 to 5	1 to 5	50 to 500	50 to 500	50 to 500	5 to 50
COc1ccc(F)cc1C(=O)NCc1ccc(-c2ncc(-c3ccn(CC(F)(F)F)n3)c3[nH]nc(N)c23)cc1 [Example 28, N-(4-(3-amino-7-(1-(2,2,2-trifluoroethyl)-1H-pyrazol-3-yl)-1H-pyrazolo[4,3-c]pyridin-4-yl)benzyl)-5-fluoro-2-methoxybenzamide]	1 to 5	1 to 5	50 to 500	5 to 50	50 to 500	5 to 50
COc1ccc(F)cc1C(=O)NCc1ccc(-c2ncc(-c3ncc(C(F)(F)F)cn3)c3[nH]nc(N)c23)cc1 [Example 42, N-(4-(3-amino-7-(5-(trifluoromethyl)pyrimidin-2-yl)-1H-pyrazolo[4,3-c]pyridin-4-yl)benzyl)-5-fluoro-2-methoxybenzamide]	1 to 5	1 to 5	> 500	> 500	> 500	50 to 500
COc1ccc(F)cc1C(=O)NCc1ccc(-c2ncc(-c3cnn4cccnc34)c3[nH]nc(N)c23)cc1 [Example 70, N-(4-(3-amino-7-(pyrazolo[1,5-a]pyrimidin-3-yl)-1H-pyrazolo[4,3-c]pyridin-4-yl)benzyl)-5-fluoro-2-methoxybenzamide]	1 to 5	1 to 5	50 to 500	50 to 500	> 500	5 to 50
COc1ccc(F)cc1C(=O)NCc1ccc(-c2ncc(-c3ccc(NC(=O)C4CC4)cn3)c3[nH]nc(N)c23)cc1 [Example 79, N-(4-(3-amino-7-(5-(cyclopropaneformamido)pyridin-2-yl)-1H-pyrazolo[4,3-c]pyridin-4-yl)benzyl)-5-fluoro-2-methoxybenzamide]	5 to 50	5 to 50	> 500	> 500	> 500	> 500
N-(4-(3-amino-7-(1-(difluoromethyl)-1H-pyrazol-3-yl)-1H-pyrazolo[4,3-c]pyridin-4-yl)benzyl)-5-fluoro-2-methoxybenzamide [Example 29]	≤ 1	≤ 1	5 to 50	5 to 50	50 to 500	5 to 50
COc1ccc(F)cc1C(=O)NCc1ccc(-c2ncc(-c3ccn4nccc4n3)c3[nH]nc(N)c23)cc1 [Example 46, N-(4-(3-amino-7-(pyrazolo[1,5-a]pyrimidin-5-yl)-1H-pyrazolo[4,3-c]pyridin-4-yl)benzyl)-5-fluoro-2-methoxybenzamide]	1 to 5	1 to 5	50 to 500	5 to 50	> 500	5 to 50
COCCOc1ccc(-c2cnc(-c3ccc(CNC(=O)c4cc(F)ccc4OC)cc3)c3c(N)n[nH]c23)nc1 [Example 59, N-(4-(3-amino-7-(5-(2-methoxyethoxy)pyridin-2-yl)-1H-pyrazolo[4,3-c]pyridin-4-yl)benzyl)-5-fluoro-2-methoxybenzamide]	≤ 1	≤ 1	5 to 50	5 to 50	50 to 500	5 to 50
COc1ccc(F)cc1C(=O)NCc1ccc(-c2nc(C)c(-c3ncccn3)c3[nH]nc(N)c23)cc1 [Example 84, N-(4-(3-amino-6-methyl-7-(pyrimidin-2-yl)-1H-pyrazolo[4,3-c]pyridin-4-yl)benzyl)-5-fluoro-2-methoxybenzamide]	5 to 50	5 to 50	50 to 500	> 500	> 500	> 500
COc1ccc(F)cc1C(=O)NCc1ccc(-c2ncc(-c3ccc(C(F)F)cn3)c3[nH]nc(N)c23)cc1 [Example 48, N-(4-(3-amino-7-(5-(difluoromethyl)pyridin-2-yl)-1H-pyrazolo[4,3-c]pyridin-4-yl)benzyl)-5-fluoro-2-methoxybenzamide]	1 to 5	1 to 5	5 to 50	50 to 500	50 to 500	5 to 50
COc1ccc(F)cc1C(=O)NCc1ccc(-c2nc(C(C)C(F)(F)F)c(-c3ncccn3)c3[nH]nc(N)c23)cc1 (stereo not drawn) [Example 7, N-(4-(3-amino-7-(pyrimidin-2-yl)-6-(1,1,1-trifluoropropan-2-yl)-1H-pyrazolo[4,3-c]pyridin-4-yl)benzyl)-5-fluoro-2-methoxybenzamide]	1 to 5	1 to 5	50 to 500	50 to 500	> 500	5 to 50
COc1ccc(F)cc1C(=O)NCc1ccc(-c2ncc(-c3ccc(N4CCN(C)CC4)cn3)c3[nH]nc(N)c23)cc1 [Example 73, N-(4-(3-amino-7-(5-(4-methylpiperazin-1-yl)pyridin-2-yl)-1H-pyrazolo[4,3-c]pyridin-4-yl)benzyl)-5-fluoro-2-methoxybenzamide]	≤ 1	≤ 1	5 to 50	5 to 50	50 to 500	5 to 50
COc1ccc(F)cc1C(=O)NCc1ccc(-c2nc(C3CCSCC3)cc3[nH]nc(N)c23)cc1 [Example 91, N-(4-(3-amino-6-(tetrahydro-2H-thiopyran-4-yl)-1H-pyrazolo[4,3-c]pyridin-4-yl)benzyl)-5-fluoro-2-methoxybenzamide]	1 to 5	1 to 5	50 to 500	50 to 500	> 500	50 to 500
COc1ccc(F)cc1C(=O)NCc1ccc(-c2ncc(-c3nccn4cccc34)c3[nH]nc(N)c23)cc1 [Example 77, N-(4-(3-amino-7-(pyrrolo[1,2-a]pyrazin-1-yl)-1H-pyrazolo[4,3-c]pyridin-4-yl)benzyl)-5-fluoro-2-methoxybenzamide]	1 to 5	1 to 5	50 to 500	50 to 500	> 500	5 to 50
